# Source: the supplement of paper PMC10307832
# Legend:
# Test in all cases: relative viability (nuclei count vs DMSO), 5 days (fraction); higher = more cells survive
# [1] = compound: CN1CCC(CNc2ccc3ncc(-c4cccc(OC(F)(F)F)c4)n3n2)CC1 [SGI-1776] + Nc1ncn([C@H]2C[C@H](O)[C@@H](CO)O2)c(=O)n1 [Decitabine] (partner 2 µM)
# Summary of the method: (§1)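 Lung cancer cell lines in 1536-well plates got either a single drug or a fixed anchor-drug dose together with five library-drug doses (not always all listed) in √10 steps, by pin tool, on the day after seeding. Nuclei were counted after 5 days, and relative viability is the treated-to-vehicle ratio of nuclei counts. Values are medians of duplicate plates.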
# [2] = compound: Nc1ccccc1NC(=O)c1ccc(CNC(=O)OCc2cccnc2)cc1 [Entinostat] + CCNC(=O)c1noc(-c2cc(C(C)C)c(O)cc2O)c1-c1ccc(CN2CCOCC2)cc1 [Luminespib] (partner 0.01 µM)
# Summary of the method: as §1
# [3] = compound: C1COCCN1C2=NC(=NC3=C2OC4=C3C=CC=N4)C5=CC(=CC=C5)NC(=O)C6=CN=C(C=C6)N + CC(C)C[C@H](NC(=O)[C@H](Cc1ccccc1)NC(=O)c1cnccn1)B(O)O [Bortezomib] (partner 0.002 µM)
# Summary of the method: as §1
# [4] = compound: C1COCCN1C2=NC(=NC3=C2OC4=C3C=CC=N4)C5=CC(=CC=C5)NC(=O)C6=CN=C(C=C6)N + C[C@@H](Oc1cc(-c2cnn(C3CCNCC3)c2)cnc1N)c1c(Cl)ccc(F)c1Cl [Crizotinib] (partner 1 µM)
# Summary of the method: as §1
Cell Line,relative viability ([1]; first compound 0.08 µM),relative viability ([1]; first compound 0.8 µM),relative viability ([1]; first compound 2.53 µM),relative viability ([1]; first compound 8 µM),relative viability ([2]; first compound 0.02 µM),relative viability ([2]; first compound 0.06325 µM),relative viability ([2]; first compound 0.2 µM),relative viability ([2]; first compound 0.6325 µM),relative viability ([2]; first compound 2 µM),relative viability ([3]; first compound 0.02 µM),relative viability ([3]; first compound 0.06325 µM),relative viability ([3]; first compound 0.2 µM),relative viability ([3]; first compound 0.6325 µM),relative viability ([3]; first compound 2 µM),relative viability ([4]; first compound 0.02 µM),relative viability ([4]; first compound 0.06325 µM),relative viability ([4]; first compound 0.2 µM),relative viability ([4]; first compound 0.6325 µM),relative viability ([4]; first compound 2 µM)
LXF-289,0.384,0.366,0.369,0.326,0.754,0.675,0.739,0.494,0.354,1.1,1.11,0.996,0.997,0.409,0.859,0.903,0.821,0.858,0.604
BEN,0.733,0.711,0.635,0.554,0.217,0.32,0.263,0.472,0.349,0.961,0.738,0.764,0.761,0.711,0.928,0.841,0.932,0.821,0.504
SW 1573,0.598,0.459,0.483,0.299,0.531,0.35,0.162,0.262,0.217,1.16,0.904,1.01,0.888,0.474,0.89,0.812,0.721,0.743,0.659
NCI-H1993,0.56,0.664,0.522,0.503,0.968,1.08,0.925,0.771,0.275,1.2,1.13,0.967,0.891,0.893,0.821,0.856,0.805,0.899,0.789
SK-LU-1,0.671,0.665,0.658,0.645,0.207,0.202,0.227,0.2,0.212,1.31,0.998,1.02,1.14,0.63,0.947,0.992,0.915,1.1,0.502
